Earlier results as cited in US9439985B2, “Compositions for radiolabeling diethylenetriaminepentaacetic acid (DTPA)-dextran” (Navidea Biopharmaceuticals, Inc., priority 2009, dated 2016).

How the values were obtained:
[1] = test system: mannose-binding glycoprotein receptors in macrophages and dendritic cells present in the sentinel node; conditions: rabbit; Hoh et al.
[2] = test system: mannose-terminated glycoprotein receptors; conditions: in vitro; Vera et al.

| binding to mannose-terminated glycoprotein receptors [2] | Substance | biodistribution after injection [1] |
| --- | --- | --- |
|  | 99mTc-DTPA-mannosyl-dextran | diffuses into lymph channels, flows to the sentinel node, and binds to mannose-binding glycoprotein receptors |
| binds avidly | DTPA-mannosyl-dextran |  |
